Drawing on article doi:10.1101/2025.09.30.679465v1, “Large-Scale Structure-Based Virtual Screening Identifies Diverse KNa1.1 (KCNT1) Potassium Channel Inhibitors” (biorxiv, 2025), this text covers IC50 for one compound.

SMILES strings stand for the structures. Numbering of substitutions follows the chain as printed.

The experiment addresses T1, KNa1.1 WT/Y796H (Homo sapiens, UniProt Q5JUK3, Y796H).
T1 construct: gene KCNT1; full-length WT KNa1.1 and Y796H KNa1.1 subunits joined by self-cleaving T2A linker in pcDNA6
T1 sequence (Q5JUK3 1-1230): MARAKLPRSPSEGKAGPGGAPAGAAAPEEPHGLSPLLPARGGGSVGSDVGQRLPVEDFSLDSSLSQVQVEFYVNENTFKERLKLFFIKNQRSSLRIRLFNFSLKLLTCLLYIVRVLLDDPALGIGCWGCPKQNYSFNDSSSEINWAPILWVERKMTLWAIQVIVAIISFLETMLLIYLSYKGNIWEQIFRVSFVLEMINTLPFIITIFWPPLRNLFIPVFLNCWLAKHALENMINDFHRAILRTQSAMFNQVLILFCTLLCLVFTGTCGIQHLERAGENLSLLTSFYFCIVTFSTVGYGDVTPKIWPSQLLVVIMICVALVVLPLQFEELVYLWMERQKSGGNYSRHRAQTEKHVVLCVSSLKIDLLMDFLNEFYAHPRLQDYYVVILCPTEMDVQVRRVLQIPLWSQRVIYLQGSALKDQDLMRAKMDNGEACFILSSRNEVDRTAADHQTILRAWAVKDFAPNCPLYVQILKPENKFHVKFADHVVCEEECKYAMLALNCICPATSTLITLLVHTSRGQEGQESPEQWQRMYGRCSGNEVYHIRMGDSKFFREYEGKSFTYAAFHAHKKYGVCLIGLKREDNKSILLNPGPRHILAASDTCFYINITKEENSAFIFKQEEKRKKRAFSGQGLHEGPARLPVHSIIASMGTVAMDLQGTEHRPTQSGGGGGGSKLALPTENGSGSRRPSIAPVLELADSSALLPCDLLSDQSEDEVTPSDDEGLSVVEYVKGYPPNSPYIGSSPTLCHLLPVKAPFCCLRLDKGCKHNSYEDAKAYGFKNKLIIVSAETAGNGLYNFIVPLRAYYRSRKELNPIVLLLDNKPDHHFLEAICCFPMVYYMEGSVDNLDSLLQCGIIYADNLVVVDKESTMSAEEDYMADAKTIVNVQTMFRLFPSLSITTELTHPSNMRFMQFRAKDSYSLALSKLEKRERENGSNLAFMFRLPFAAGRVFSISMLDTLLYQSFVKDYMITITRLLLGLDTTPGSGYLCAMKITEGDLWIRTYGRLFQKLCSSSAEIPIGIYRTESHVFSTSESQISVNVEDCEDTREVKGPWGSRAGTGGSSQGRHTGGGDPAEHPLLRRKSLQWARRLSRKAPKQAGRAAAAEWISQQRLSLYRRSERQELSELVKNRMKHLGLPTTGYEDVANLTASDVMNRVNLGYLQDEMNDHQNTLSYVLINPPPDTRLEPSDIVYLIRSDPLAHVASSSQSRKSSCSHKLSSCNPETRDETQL
T1 sequence (Q5JUK3 1-1230 Y796H): T1 sequence (Q5JUK3 1-1230) with Y796H
The experiment in a line: thallium flux (Thallos AM), HEK293. Type of experiment: cell-based. An excerpt: thallium flux (Thallos AM), HEK293 on KNa1.1 WT/Y796H

For the compound `CC(c1ccccc1)N1CCCN(c2cccc(NC(=O)Nc3cccc(Cl)c3)c2)C1=O` (stereo not shown) [compound 1, Cpd1], the 50% inhibitory concentration (IC50) (as a rule, the concentration that gives 50% inhibition) stood at 4.7 µM. This lies in the single-digit micromolar range.
